Experimental data: article PMC10569036

Key:
[1] = shake flask on a mixture of 185; loss from the water phase only; LC-QTOF peak areas; conditions: room
[2] = shake flask on a mixture of 185; loss from the water phase only; LC-Orbitrap peak areas; conditions: room

Structure (SMILES)	log partition 1-octanol / HPLC water, unbuffered, traces of methanol / DMSO [1]	log partition butyl acetate / HPLC water, unbuffered, traces of methanol / DMSO [1]	log partition chloroform / HPLC water, unbuffered, traces of methanol / DMSO [1]	log partition cyclohexane / HPLC water, unbuffered, traces of methanol / DMSO [1]	log partition dichloromethane / HPLC water, unbuffered, traces of methanol / DMSO [1]	log partition n-hexane / HPLC water, unbuffered, traces of methanol / DMSO [1]	log partition n-octane / HPLC water, unbuffered, traces of methanol / DMSO [1]	log partition n-undecane / HPLC water, unbuffered, traces of methanol / DMSO [1]	log partition oleylalcohol / HPLC water, unbuffered, traces of methanol / DMSO [1]	log partition toluene / HPLC water, unbuffered, traces of methanol / DMSO [1]	log partition 1-octanol / HPLC water, unbuffered, traces of methanol / DMSO [2]	log partition butyl acetate / HPLC water, unbuffered, traces of methanol / DMSO [2]	log partition chloroform / HPLC water, unbuffered, traces of methanol / DMSO [2]	log partition cyclohexane / HPLC water, unbuffered, traces of methanol / DMSO [2]	log partition dichloromethane / HPLC water, unbuffered, traces of methanol / DMSO [2]	log partition n-hexane / HPLC water, unbuffered, traces of methanol / DMSO [2]	log partition n-octane / HPLC water, unbuffered, traces of methanol / DMSO [2]	log partition n-undecane / HPLC water, unbuffered, traces of methanol / DMSO [2]	log partition oleylalcohol / HPLC water, unbuffered, traces of methanol / DMSO [2]	log partition toluene / HPLC water, unbuffered, traces of methanol / DMSO [2]
Cc1oncc1C(=O)Nc1ccc(C(F)(F)F)cc1	2.576 log10	3.034 log10	2.805 log10	0.2033 log10	2.511 log10	0.07872 log10	0.112 log10	0.08618 log10	2.816 log10	2.381 log10	1.455 log10	1.635 log10	1.002 log10	0.009613 log10	1.347 log10	-0.1226 log10	-0.1369 log10	-0.387 log10	1.068 log10	0.7892 log10
Cc1cc(C)nc(NS(=O)(=O)c2ccc(N)cc2)n1	-0.08641 log10	-0.1162 log10	-0.2658 log10	-0.9757 log10	-0.5411 log10	-1.336 log10	-1.319 log10	-1.455 log10	-0.5276 log10	-1.085 log10	-0.03015 log10	-0.1328 log10	0.1061 log10	-0.9043 log10	-0.3816 log10	-0.631 log10	-0.6854 log10	-0.8904 log10	-0.3433 log10	-1.077 log10
CC(C)N1C(=O)c2ccccc2NS1(=O)=O	-1.303 log10	-1.026 log10	0.1169 log10	-1.509 log10	0.3228 log10	-1.425 log10	-1.602 log10	-1.756 log10	-1.143 log10	-0.5708 log10	0.1891 log10	-1.323 log10	1.041 log10	-0.4548 log10	0.004436 log10	-0.9186 log10	-0.654 log10	-1.481 log10	-0.1011 log10	-0.9524 log10
